Source: ChEMBL document CHEMBL3108671, “Differential Induction of Cytoplasmic Vacuolization and Methuosis by Novel 2-Indolyl-Substituted Pyridinylpropenones” (2014)
Activity calls are given as the source filed them. The rule behind the calls is not given here.

Key:
U-251 [1] = assay: Induction of methuosis in human U251 cells assessed as detachment of vacuolated cells at 10 uM after 2 days by phase-contrast microscopic analysis; format: functional, cell-based
U-251 [2] = assay: Induction of methuosis in human U251 cells assessed as decrease in cell proliferation at 10 uM after 2 days by phase-contrast microscopic analysis; format: functional, cell-based
U-251 [3] = assay: Induction of methuosis in human U251 cells assessed as heavily vacuolated cells at 10 uM after 1 day by phase-contrast microscopic analysis; format: functional, cell-based
U-251 [4] = assay: Growth inhibition of human U251 cells preincubated for 24 hrs followed by compound-washout measured at 48 hrs by sulforhodamine assay; format: functional
U-251 [5] = assay: Induction of methuosis in human U251 cells assessed as loss of membrane integrity at 10 uM after 2 days by phase-contrast microscopic analysis; format: functional, cell-based
U-251 [6] = assay: Induction of methuosis in human U251 cells assessed as sparse cells at 10 uM after 1 day by phase-contrast microscopic analysis; format: functional, cell-based

| Compound | Activity (U-251 [1]) | Activity (U-251 [2]) | Activity (U-251 [3]) | GI50 (U-251 [4]) | Activity (U-251 [5]) | Activity (U-251 [6]) |
| --- | --- | --- | --- | --- | --- | --- |
| CCCc1[nH]c2ccc(OC)cc2c1/C=C/C(=O)c1ccncc1 | inactive | inactive | Active | 15.3 µM | – | – |
| COc1ccc2[nH]c(C)c(/C=C/C(=O)c3cccnc3)c2c1 | – | inactive | inactive | 16.9 µM | – | – |
| COc1ccc2[nH]c(CC(C)C)c(/C=C/C(=O)c3ccncc3)c2c1 | inactive | inactive | Active | 16.6 µM | – | – |
| COc1ccc2[nH]cc(/C=C/C(=O)c3ccncc3)c2c1 | inactive | inactive | Active | 18.6 µM | – | – |
| COc1ccc2[nH]c(C(C)C)c(/C=C/C(=O)c3ccncc3)c2c1 | inactive | inactive | Active | > 20 µM | – | – |
| CCc1[nH]c2ccc(OC)cc2c1/C=C/C(=O)c1ccncc1 | Active | – | Active | 3.2 µM | Active | Active |
